Test results as given in US9066516B2, “Uses of thaxtomin and thaxtomin compositions as herbicides” (priority 2008, dated 2015).

Legend:
[1] = system: small-flower umbrella sedge; assay: Field study, 1-sq foot plots (Example 5); format: in vivo; conditions: 14 days after treatment
Experimental: (§1) The combined effect of thaxtomin A and two commercial herbicides (Bipyribac-sodium formulated as Regiment and Lemongrass oil formulated as GreenMatch EX) on small-flower umbrella sedge and watergrass is tested in a field study using small (1-sq foot) plots. All single product treatments and tank mix combinations were sprayed at 57 gal per acre. Means in each column marked with the same letter in Table 2 are not statistically different from each other at p<0.05

watergrass = assay: Field study, 1-sq foot plots (Example 5); format: in vivo; conditions: 14 days after treatment
Experimental: as §1

[2] = system: Canarygrass (Phalaris minior); assay: Pre-emergence test of MBI-005, lab (Example 12); format: in vivo; conditions: pre-emergent; note: ranges in brackets are in %
Experimental: (§2) To further describe the spectrum of pre-emergence activity, tests were conducted in laboratory and field conditions. In laboratory testing, 35 seeds were placed on a ring of blotter paper inside a 3 cm petri dish and supplied with 4 ml of MBI-005 (≦0.1 mg MBI-005/ml). Water was used as a negative control and oryzalin applied as a positive control. Petri dishes were randomly placed in a growth room at 25° C. and 50% RH. Treatments were replicated three times and germinated seeds were counted 7 and 14 days after application; water was added as necessary to maintain moisture levels inside each petri dish.

[3] = system: Fall Panicum (Panicum dichotomiflorum); assay: Pre-emergence test of MBI-005, lab (Example 12); format: in vivo; conditions: pre-emergent; note: ranges in brackets are in %
Experimental: as §2

barnyard grass = assay: Greenhouse synergy test MBI-005 + commercial herbicides (Example 11); format: in vivo; conditions: 14 days
Experimental: (§3) The test species barnyard grass, ragweed, sedge, and broad-leaf mustard were used for the valuation of synergy between MBI-005 and the rice herbicides clomazone, penoxsulam, cyhalofop, fenoxaprop-p-ethyl, bispyribac-sodium, thiobencarb, and propanil.
(§4) There were 3 replicates per treatment which were sprayed with approximately ⅔ ml per replicate. The treatments were completely randomized and kept in a greenhouse at 25° C. The efficacy was rated at 7 and 14 days post treatment.

broad-leaf mustard = assay: as above; format: in vivo; conditions: 14 days
Experimental: as §3, §4

sedge = assay: as above; format: in vivo; conditions: 14 days
Experimental: as §3, §4

[4] = system: small flower umbrella sedge; assay: Post-emergent MBI-005 + rice herbicides on smallflower umbrella sedge (Example 19); format: in vivo; conditions: 14 days
Experimental: Twenty seedlings in 2.5 cm square pots containing plant growth mix were sprayed to full coverage using a hand sprayer. Negative controls were sprayed with water. Pots were randomly placed in a growth room at 25° C. and 50% RH, and watered as necessary. Treatments were replicated three times and evaluated at 7 and 14 days for visual % damage, with 0% indicating no damage and 100% indicating plant death.
Synergy was calculated as the ratio of observed (E) to expected (E/Ee) percent control using Colby's formula.

[5] = in vivo; cited from earlier work
Rice (variety M209) = assay: Field study on rice, yield (Example 6); format: in vivo; conditions: Thaxtomin A 180 g/acre
Experimental: The efficacy of thaxtomin A derived from a liquid culture of S. acidiscabies is tested in a field study on rice using 4.9 sq-ft plots surrounded by a metal ring. Treatments with either thaxtomin A or thaxtomin A in combination with lemongrass oil (formulated as GreenMatch EX) or cyhalofop (formulated as Clincher CA) were done using a hand-held sprayer with a water volume corresponding to 57 gallons per acre. Rice (variety M209) was grown until maturity and harvested by hand for yield and weed count assessment. Results of yield (kg/ha), and numbers of redstem, small-flower umbrella sedge, and sprangletop in each plot are presented in Table 3 below.

For `CN1C(=O)[C@](O)(Cc2cccc(O)c2)N(C)C(=O)[C@@H]1Cc1c[nH]c2cccc([N+](=O)[O-])c12` [thaxtomin A], the “Sedge control (%)” value ([1]; Thaxtomin 0.25 mg/mL) was 95a %, the “Sedge control (%)” value ([1]; Thaxtomin 0.5 mg/mL) was 100a % and the “Watergrass control (%)” value (watergrass; Thaxtomin 0.25 mg/mL) was 5d %. The “Watergrass control (%)” value (watergrass; Thaxtomin 0.5 mg/mL) was 5d %, the “Rating at 0.1 mg/ml (Reduction of Germination)” value [2] was “++++ (95-100)” and the “Rating at 0.1 mg/ml (Reduction of Germination)” value [3] was “++++ (95-100)”. The “% Control MBI-005” value (barnyard grass; MBI-005 0.125 mg/mL (bispyribac-sodium line)) was 3.3%, the “% Control MBI-005” value (barnyard grass; MBI-005 0.125 mg/mL (penoxsulam line)) was 17.5% and the “% Control MBI-005” value (barnyard grass; MBI-005 0.125 mg/mL (propanil line)) was 10.0%. The “% Control MBI-005” value (barnyard grass; MBI-005 0.25 mg/mL (fenoxaprop-p-ethyl line)) was 66.7%, the “% Control MBI-005” value (barnyard grass; MBI-005 0.25 mg/mL (thiobencarb line)) was 41.7% and the “% Control MBI-005” value (broad-leaf mustard; MBI-005 0.125 mg/mL (cyhalofop line)) was 13.3%. The “% Control MBI-005” value (broad-leaf mustard; MBI-005 0.125 mg/mL (fenoxaprop-p-ethyl line)) was 45.8%, the “% Control MBI-005” value (broad-leaf mustard; MBI-005 0.125 mg/mL (thiobencarb line)) was 54.2% and the “% Control MBI-005” value (broad-leaf mustard; MBI-005 0.25 mg/mL (bispyribac-sodium line)) was 37.5%. The “% Control MBI-005” value (broad-leaf mustard; MBI-005 0.25 mg/mL (propanil line)) was 58.3%, the “% Control MBI-005” value (sedge; MBI-005 0.01 mg/mL (cyhalofop line)) was 20.0% and the “% Control MBI-005” value (sedge; MBI-005 0.01 mg/mL (penoxsulam line)) was 20.0%. The “% Control MBI-005” value (sedge; MBI-005 0.02 mg/mL (fenoxaprop-p-ethyl line)) was 70.8%, the “% Control MBI-005” value (sedge; MBI-005 0.02 mg/mL (thiobencarb line)) was 37.5% and the “% Control MBI-005” value ([4]; MBI-005 0.5% of the label rate (Bispyribac-sodium line)) was 3.3%. The “% Control MBI-005” value ([4]; MBI-005 2.0% of the label rate (Penoxsulam line)) was 20.0%, the “% Control MBI-005” value ([4]; MBI-005 2.0% of the label rate (Propanil line)) was 20.0% and the “% Control MBI-005” value ([4]; MBI-005 2.0% of the label rate (Thiobencarb line)) was 20.0%. The “activity as pre and post emergent, non-systemic herbicides” value [5] was “marked activity”, the “Yield (kg/ha)” value (Rice (variety M209); listed as Thaxtomin A) was 7876b kg/ha and the “Yield (kg/ha)” value (Rice (variety M209); listed as thaxtomin) was “no effect”.
